Measured values reported in patent US8426202B2, “Cell culture medium” (Cellca GmbH, priority 2005, dated 2013).
Several values for one entry are separate records, joined by “and”; a condition that tells them apart may be missing. Equal values may be shown once. Read-outs that look alike come from different tables or passages of the source.

Legend:
[1] = test system: CHO cell line that expresses an antibody; experiment: Batch experiment with the substances according to the invention (Example 1); format: cell-based, Chinese hamster; details: batch mode, substance 0.5-1 g/l, basal medium glucose 4.7 g/l, glutamine […]
[2] = test system: CHO cell line that expresses an antibody; experiment: Fed-batch experiment with the substances according to the invention (Example 2, Table 2); format: cell-based, Chinese hamster; set-up: Viabil.: concentration or dose not given beside the values
Text: Feed took place at regular intervals.

[3] = test system: CHO cell line that expresses an antibody; details: fed-batch; substance 1 g/l; supernatant, ELISA; absolute value of the control set at 100%
Method: A CHO cell line that expresses an antibody was used for the experiments. The product concentration (antibody concentration) in the cell supernatant was determined by ELISA.
From selected samples, the product concentration (antibody concentration) in the supernatant was determined by ELISA (Table 3)

[4] = test system: CHO cell line that expresses an antibody; details: fed-batch, glutamine-free basal and feed media, substance 0.5-1 g/l
Text: (§1) A CHO cell line that expresses an antibody was used for the experiments.
This is a serum-free, protein-free nutrient medium. It is a ready-made, sterile-filtered nutrient medium.
After 1-4 days the cells were supplemented with a feed medium, i.e. the process was switched to fed-batch mode. Feed took place at regular intervals. In fed-batch experiments, a protein-free and serum-free feed medium from the company HyQ (R05.2 supplement, Cat. No.: SH30584.04, Lot No.: APF21457G) was used.
All substances (chemicals) used according to the invention were obtained from the company Sigma and stock solutions were prepared from them. From the stock solutions, the substances were put at the desired final concentration in culture tubes. The various culture tubes prepared in this way were finally inoculated with the antibody-producing CHO-clone at a target inoculation cell concentration (1-3×10^5/ml). For this, the corresponding amount of inoculum cells was calculated and the required amount of inoculum cell suspension was centrifuged. […] In this way the desired inoculation cell concentration was adjusted in the cell suspension being investigated. The cell suspension thus prepared was proportioned in the culture tubes, which were provided with the substances according to the invention beforehand. The culture tubes were incubated at 37° C., and 8% CO2 atmosphere, with shaking. The culture tubes were cultivated for 8-11 days in the batch mode or in the fed-batch mode. Samples for offline measurement of the variables were taken from the culture vessels at regular intervals, for example daily or on every third day. The metabolic variables and cell concentrations of the samples were measured. Cell concentration and cell vitality were measured with a CeDex instrument. The metabolic variables (glucose, lactate, glutamine and ammonium) were determined with an analyzer (BioProfile 100).
(§2) The following final concentrations of the substances according to the invention were established in a nutrient medium after inoculation:
The substances according to the invention were tested under fed-batch conditions. […] The feed medium used was from the company HyQ (R05.2 supplement, Cat. No.: SH30584.04, Lot No.: APF21457G). The feed medium was glutamine-free (Table 4).

[5] = test system: CHO cell line that expresses an antibody; details: fed-batch, basal medium 4 mM glutamine, feed with 3 g/l Ala-Gln and 3 g/l Gly-Gln, substance 0.5-1 g/l
Method: as §1
The experiments were carried out either in batch mode or in fed-batch mode. When the process was carried out in fed-batch mode, the process was first started in batch mode in the above-mentioned basal medium and cells were cultivated in this manner for 1-4 days. After 1-4 days the cells were supplemented with a feed medium, i.e. the process was switched to fed-batch mode. Feed took place at regular intervals. In fed-batch experiments, a protein-free and serum-free feed medium from the company HyQ (R05.2 supplement, Cat. No.: SH30584.04, Lot No.: APF21457G) was used.
From the stock solutions, the substances were put at the desired final concentration in culture tubes. The various culture tubes prepared in this way were finally inoculated with the antibody-producing CHO-clone at a target inoculation cell concentration (1-3×10^5/ml). For this, the corresponding amount of inoculum cells was calculated and the required amount of inoculum cell suspension was centrifuged. […] In this way the desired inoculation cell concentration was adjusted in the cell suspension being investigated. The cell suspension thus prepared was proportioned in the culture tubes, which were provided with the substances according to the invention beforehand. The culture tubes were incubated at 37° C., and 8% CO2 atmosphere, with shaking. The culture tubes were cultivated for 8-11 days in the batch mode or in the fed-batch mode. Samples for offline measurement of the variables were taken from the culture vessels at regular intervals, for example daily or on every third day. The metabolic variables and cell concentrations of the samples were measured. Cell concentration and cell vitality were measured with a CeDex instrument. The metabolic variables (glucose, lactate, glutamine and ammonium) were determined with an analyzer (BioProfile 100).
as §2
The substances according to the invention were tested under fed-batch conditions. […] The feed medium used was from the company HyQ (R05.2 supplement, Cat. No.: SH30584.04, Lot No.: APF21457G). 3 g/l alanyl-glutamine (Ala-Gin) and 3 g/l glycyl-glutamine (Gly-Gln) were added to the feed medium.

CC(O)C(=O)[O-].[Na+] (stereo not shown) [Sodium lactate]
Gln ([1]; day 0): 1.53 mM
Glucose ([1]; day 0): 4.69 g/L
Lactate ([1]; day 0): 1 g/L
NH4 ([1]; day 0): 1.22 mM
Specific Glutamin consumption (Gln/VCD) ([1]; day 0): 1.49
Specific ammonia production (NH4/VCD) ([1]; day 0): 1.18
Specific glucose consumption (Gluc/VCD) ([1]; day 0): 4.55
Specific lactate production (Lac/VCD) ([1]; day 0): 0.97
Total Cell Density TCD ([1]; day 0): 1.07 E5/ml
Viabil. ([1]; day 0): 96%
Viable Cell Density (VCD) ([1]; day 0): 1.03 E5/ml
Gln ([1]; day 3): 1.12 mM
Glucose ([1]; day 3): 4.44 g/L
Lactate ([1]; day 3): 1.15 g/L
NH4 ([1]; day 3): 1.65 mM
Specific Glutamin consumption (Gln/VCD) ([1]; day 3): 0.19
Specific ammonia production (NH4/VCD) ([1]; day 3): 0.28
Specific glucose consumption (Gluc/VCD) ([1]; day 3): 0.74
Specific lactate production (Lac/VCD) ([1]; day 3): 0.19
Total Cell Density TCD ([1]; day 3): 6 E5/ml
Viabil. ([1]; day 3): 100%
Viable Cell Density (VCD) ([1]; day 3): 6 E5/ml
Gln ([1]; day 6): 0.31 mM
Glucose ([1]; day 6): 2.82 g/L
Lactate ([1]; day 6): 1.49 g/L
NH4 ([1]; day 6): 2.07 mM
Specific Glutamin consumption (Gln/VCD) ([1]; day 6): 0.01
Specific ammonia production (NH4/VCD) ([1]; day 6): 0.05
Specific glucose consumption (Gluc/VCD) ([1]; day 6): 0.07
Specific lactate production (Lac/VCD) ([1]; day 6): 0.04
Total Cell Density TCD ([1]; day 6): 41 E5/ml
Viabil. ([1]; day 6): 99%
Viable Cell Density (VCD) ([1]; day 6): 40.6 E5/ml
Gln ([1]; day 8): 0.35 mM
Glucose ([1]; day 8): 1.79 g/L
Lactate ([1]; day 8): 1.47 g/L
NH4 ([1]; day 8): 2.63 mM
Specific Glutamin consumption (Gln/VCD) ([1]; day 8): 0.02
Specific ammonia production (NH4/VCD) ([1]; day 8): 0.12
Specific glucose consumption (Gluc/VCD) ([1]; day 8): 0.08
Specific lactate production (Lac/VCD) ([1]; day 8): 0.07
Total Cell Density TCD ([1]; day 8): 23.7 E5/ml
Viabil. ([1]; day 8): 90%
Viable Cell Density (VCD) ([1]; day 8): 21.3 E5/ml
Gln ([1]; day 11): 0.5 mM
Glucose ([1]; day 11): 0.55 g/L
Lactate ([1]; day 11): 1.04 g/L
NH4 ([1]; day 11): 3.12 mM
Specific Glutamin consumption (Gln/VCD) ([1]; day 11): 0.04
Specific ammonia production (NH4/VCD) ([1]; day 11): 0.27
Specific glucose consumption (Gluc/VCD) ([1]; day 11): 0.05
Specific lactate production (Lac/VCD) ([1]; day 11): 0.09
Total Cell Density TCD ([1]; day 11): 24.5 E5/ml
Viabil. ([1]; day 11): 47%
Viable Cell Density (VCD) ([1]; day 11): 11.4 E5/ml
Total Cell Density TCD ([2]; day 0, fed-batch): 1.5 E5/ml
Viabil. ([2]; day 0, fed-batch): 91%
Viable Cell Density (VCD) ([2]; day 0, fed-batch): 1.37 E5/ml
Total Cell Density TCD ([2]; day 2, fed-batch): 4.6 E5/ml and 4 E5/ml
Viabil. ([2]; day 2, fed-batch): 98% and 95%
Viable Cell Density (VCD) ([2]; day 2, fed-batch): 4.5 E5/ml and 3.8 E5/ml
Total Cell Density TCD ([2]; day 5, fed-batch): 13.1 E5/ml and 14.3 E5/ml
Viabil. ([2]; day 5, fed-batch): 98%
Viable Cell Density (VCD) ([2]; day 5, fed-batch): 12.8 E5/ml and 14 E5/ml
Total Cell Density TCD ([2]; day 8, fed-batch): 52.4 E5/ml and 54.7 E5/ml
Viabil. ([2]; day 8, fed-batch): 96% and 95%
Viable Cell Density (VCD) ([2]; day 8, fed-batch): 50.2 E5/ml and 52 E5/ml
Antibody concentration [3]: 124%
Sp. Gluc cons. ([4]; day 0): 93
Sp. NH4 prod ([4]; day 0): 98 % of control
TCD ([4]; day 0): 100 % of control
VCD ([4]; day 0): 100 % of control
Viabil. ([4]; day 0): 94%
Sp. Gluc cons. ([4]; day 3): 66
Sp. Lactate prod. ([4]; day 3): 72 % of control
Sp. NH4 prod ([4]; day 3): 63 % of control
TCD ([4]; day 3): 140 % of control
VCD ([4]; day 3): 148 % of control
Viabil. ([4]; day 3): 94%
Sp. Gluc cons. ([4]; day 5): 74
Sp. Lactate prod. ([4]; day 5): 66 % of control
Sp. NH4 prod ([4]; day 5): 72 % of control
TCD ([4]; day 5): 128 % of control
VCD ([4]; day 5): 136 % of control
Viabil. ([4]; day 5): 97%
Sp. Gluc cons. ([4]; day 7): 62
Sp. Lactate prod. ([4]; day 7): 57 % of control
Sp. NH4 prod ([4]; day 7): 66 % of control
TCD ([4]; day 7): 136 % of control
VCD ([4]; day 7): 147 % of control
Viabil. ([4]; day 7): 95%
Sp. Gluc cons. ([4]; day 9): 71
Sp. Lactate prod. ([4]; day 9): 65 % of control
Sp. NH4 prod ([4]; day 9): 73 % of control
TCD ([4]; day 9): 131 % of control
VCD ([4]; day 9): 133 % of control
Viabil. ([4]; day 9): 95%
Total Cell Density TCD ([5]; day 0): 1.1 E5/ml
Viabil. ([5]; day 0): 96%
Viable Cell Density (VCD) ([5]; day 0): 1.0 E5/ml
Total Cell Density TCD ([5]; day 3): 7.9 E5/ml
Viabil. ([5]; day 3): 96%
Viable Cell Density (VCD) ([5]; day 3): 7.6 E5/ml
Total Cell Density TCD ([5]; day 5): 45.2 E5/ml
Viabil. ([5]; day 5): 96%
Viable Cell Density (VCD) ([5]; day 5): 43.3 E5/ml
Total Cell Density TCD ([5]; day 7): 41.1 E5/ml
Viabil. ([5]; day 7): 83%
Viable Cell Density (VCD) ([5]; day 7): 34.3 E5/ml
Total Cell Density TCD ([5]; day 9): 34.7 E5/ml
Viabil. ([5]; day 9): 73%
Viable Cell Density (VCD) ([5]; day 9): 25.2 E5/ml
